From the supplement of paper PMC8617591

How the values were obtained:
[1] = test system: Mycobacterium tuberculosis Erdman (autoluminescent); experiment: GRinf, maximum normalised growth rate inhibition (three-drug combination) (unitless (-1 to 1)); higher = less effect (negative = killing)
Protocol: (§1)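 DiaMOND equipotent three-drug combination dose responses (10 doses, 1.5- or 2-fold spacing, centred on IC90) against autoluminescent M. tuberculosis Erdman in 8 in vitro models. Read-out is OD600, or luminescence for the intracellular and dormancy models, normalised to untreated wells. Hill-fit Einf, AUC25 and GRinf are potency metrics; FIC50 and FIC90 are total Loewe fractional inhibitory concentrations as log2 (negative = synergy).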

[2] = test system: Mycobacterium tuberculosis Erdman (autoluminescent); experiment: Einf, fitted maximum growth inhibition of three-drug combination (fraction); higher = stronger maximal inhibition
Protocol: as §1

[3] = test system: Mycobacterium tuberculosis Erdman (autoluminescent); experiment: AUC25, normalised area under dose response up to IC25 (three-drug combination) (fraction (0-1)); higher = more potent at low dose
Protocol: as §1

[4] = test system: Mycobacterium tuberculosis Erdman (autoluminescent); experiment: total FIC50 (Loewe) at 50% inhibition, three-drug combination (log2); higher = more antagonistic
Protocol: as §1

[5] = test system: Mycobacterium tuberculosis Erdman (autoluminescent); experiment: total FIC90 (Loewe) at 90% inhibition, three-drug combination (log2); higher = more antagonistic
Protocol: as §1

CC(C)/N=c1\cc2n(-c3ccc(Cl)cc3)c3ccccc3nc-2cc1Nc1ccc(Cl)cc1 [clofazimine] + CC(=O)NC[C@H]1CN(c2ccc(N3CCOCC3)c(F)c2)C(=O)O1 [linezolid] + CO[C@H]1/C=C/O[C@@]2(C)Oc3c(C)c(O)c4c(O)c(c(/C=N/N5CCN(C)CC5)c(O)c4c3C2=O)NC(=O)/C(C)=C\C=C\[C@H](C)[C@H](O)[C@@H](C)[C@@H](O)[C@@H](C)[C@H](OC(C)=O)[C@@H]1C [rifampicin]
Conditions | AUC25, [3] | Einf, [2] | GRinf, [1] | total FIC50, [4] | total FIC90, [5]
in vitro model: acidic pH 5.7, time point: constant (~7 days, model-specific) | 0.0866 | 0.853 | -0.0709 | 0.38 | –
in vitro model: acidic pH 5.7, time point: terminal (~4-5 doublings, model-specific) | 0.0808 | 0.981 | -0.119 | 0.419 | 0.256
in vitro model: intracellular J774, time point: constant = terminal | – | 0.941 | -0.215 | – | -0.471

Conditions | AUC25, [3] | Einf, [2] | GRinf, [1] | total FIC50, [4] | total FIC90, [5]
in vitro model: butyrate, time point: constant (~7 days, model-specific) | 0.103 | 0.922 | -0.0328 | 0.22 | 0.103
in vitro model: butyrate, time point: terminal (~4-5 doublings, model-specific) | 0.07 | 0.95 | 0.00888 | 0.26 | -0.0854
in vitro model: cholesterol 0.05 mM, time point: constant (~7 days, model-specific) | 0.14 | 0.687 | 0.0599 | -0.708 | –
in vitro model: cholesterol 0.05 mM, time point: terminal (~4-5 doublings, model-specific) | 0.132 | 0.908 | -0.188 | 4.59 | -0.0601
in vitro model: cholesterol-high 0.2 mM, time point: constant (~7 days, model-specific) | 0.13 | 0.963 | -0.755 | 0.342 | 0.45
in vitro model: cholesterol-high 0.2 mM, time point: terminal (~4-5 doublings, model-specific) | 0.107 | 0.995 | -0.935 | 0.34 | 0.174
in vitro model: dormancy (butyrate + nitrate, low O2), time point: constant (~7 days, model-specific) | 0.0831 | 0.908 | 0.229 | 1.29 | 0.832
in vitro model: dormancy (butyrate + nitrate, low O2), time point: terminal (~4-5 doublings, model-specific) | 0.0549 | 0.979 | -0.148 | 0.408 | 0.6
in vitro model: standard 7H9 glycerol, time point: constant = terminal | 0.0962 | 0.917 | 0.0708 | 0.0668 | 0.29
in vitro model: valerate, time point: constant (~7 days, model-specific) | 0.0981 | 0.885 | -0.0893 | 0.928 | –
in vitro model: valerate, time point: terminal (~4-5 doublings, model-specific) | 0.058 | 0.942 | -0.0199 | 0.756 | 0.805

CC(C)/N=c1\cc2n(-c3ccc(Cl)cc3)c3ccccc3nc-2cc1Nc1ccc(Cl)cc1 [clofazimine] + CC(=O)NC[C@H]1CN(c2ccc(N3CCOCC3)c(F)c2)C(=O)O1 [linezolid] + COc1c(N2C[C@@H]3CCCN[C@@H]3C2)c(F)cc2c(=O)c(C(=O)O)cn(C3CC3)c12 [moxifloxacin]
Conditions | AUC25, [3] | Einf, [2] | GRinf, [1] | total FIC50, [4] | total FIC90, [5]
in vitro model: acidic pH 5.7, time point: constant (~7 days, model-specific) | 0.0788 | 0.706 | -0.3 | -0.736 | –
in vitro model: acidic pH 5.7, time point: terminal (~4-5 doublings, model-specific) | 0.0696 | 0.915 | -0.183 | 0.837 | -0.131
in vitro model: intracellular J774, time point: constant = terminal | – | 0.859 | -0.214 | – | 0.527

Conditions | AUC25, [3] | Einf, [2] | GRinf, [1] | total FIC50, [4] | total FIC90, [5]
in vitro model: butyrate, time point: constant (~7 days, model-specific) | 0.113 | 0.956 | -0.279 | 0.741 | 1.3
in vitro model: butyrate, time point: terminal (~4-5 doublings, model-specific) | 0.0854 | 0.978 | -0.148 | 0.802 | 1.05
in vitro model: cholesterol 0.05 mM, time point: constant (~7 days, model-specific) | 0.141 | 0.693 | -0.0883 | 0.0515 | –
in vitro model: cholesterol 0.05 mM, time point: terminal (~4-5 doublings, model-specific) | 0.148 | 0.925 | -0.21 | 0.132 | 1.39
in vitro model: cholesterol-high 0.2 mM, time point: constant (~7 days, model-specific) | 0.139 | 0.935 | -1 | 0.411 | 0.869
in vitro model: cholesterol-high 0.2 mM, time point: terminal (~4-5 doublings, model-specific) | 0.127 | 1 | -1 | -0.0894 | 0.513
in vitro model: dormancy (butyrate + nitrate, low O2), time point: constant (~7 days, model-specific) | 0.0737 | 0.903 | 0.201 | 1.33 | 0.822
in vitro model: dormancy (butyrate + nitrate, low O2), time point: terminal (~4-5 doublings, model-specific) | 0.0474 | 0.983 | -0.18 | 1.18 | 0.998
in vitro model: standard 7H9 glycerol, time point: constant = terminal | 0.105 | 0.971 | -0.383 | 0.199 | 1.19
in vitro model: valerate, time point: constant (~7 days, model-specific) | 0.124 | 0.868 | -0.197 | 0.648 | –
in vitro model: valerate, time point: terminal (~4-5 doublings, model-specific) | 0.0951 | 0.919 | -0.0235 | 0.275 | 1.06
